Assays:
Type in all cases: cell-based
[1] = test system: Leukaemia cell lines; assay: NCI five-dose testing, subpanel mean; conditions: subpanel I: Leukaemia
Description: (§1) Screening against the cancer cell lines was carried out at the National Cancer Institute (NCI, Bethesda, Maryland, USA) applying the standard protocol of the NCI[22].

[2] = test system: breast cancer cell lines; assay: NCI five-dose testing, subpanel mean; conditions: subpanel IX: breast cancer
Description: as §1

[3] = test system: CNS cancer cell lines; assay: NCI five-dose testing, subpanel mean; conditions: subpanel IV: CNS cancer
Description: as §1

[4] = test system: colon cancer cell lines; assay: NCI five-dose testing, subpanel mean; conditions: subpanel III: colon cancer
Description: as §1

[5] = test system: renal cancer cell lines; assay: NCI five-dose testing, subpanel mean; conditions: subpanel VII: renal cancer
Description: as §1

[6] = test system: ovarian cancer cell lines; assay: NCI five-dose testing, subpanel mean; conditions: subpanel VI: ovarian cancer
Description: as §1

[7] = test system: melanoma cell lines; assay: NCI five-dose testing, subpanel mean; conditions: subpanel V: melanoma
Description: as §1

[8] = test system: non-small cell lung cancer cell lines; assay: NCI five-dose testing, subpanel mean; conditions: subpanel II: non-small cell lung cancer
Description: as §1

[9] = test system: prostate cancer cell lines; assay: NCI five-dose testing, subpanel mean; conditions: subpanel VIII: prostate cancer
Description: as §1

[10] = test system: HOP-92 non-small cell lung cancer cell line; assay: NCI five-dose testing; conditions: HOP-92; for IC (TGI): read-out: TGI (total growth inhibition concentration)
Description: as §1

[11] = test system: K-562 leukaemia cell line; assay: NCI five-dose testing; conditions: K-562; for IC (TGI): read-out: TGI (total growth inhibition concentration)
Description: as §1

[12] = test system: MDA-MB-468 breast cancer cell line; assay: NCI five-dose testing; conditions: MDA-MB-468; for IC (TGI): read-out: TGI (total growth inhibition concentration)
Description: as §1

[13] = test system: PC-3 prostate cancer cell line; assay: NCI five-dose testing; conditions: PC-3; for IC50: read-out: IC50; for IC (TGI): read-out: TGI (total growth inhibition concentration)
Description: as §1

[14] = test system: A498 renal cancer cell line; assay: NCI five-dose testing; conditions: A498; for IC (TGI): read-out: TGI (total growth inhibition concentration)
Description: as §1

[15] = test system: SK-MEL-5 melanoma cell line; assay: NCI five-dose testing; conditions: SK-MEL-5; for IC (TGI): read-out: TGI (total growth inhibition concentration)
Description: as §1

[16] = test system: OVCAR-4 ovarian cancer cell line; assay: NCI five-dose testing; conditions: OVCAR-4; for IC (TGI): read-out: TGI (total growth inhibition concentration)
Description: as §1

[17] = test system: U251 CNS cancer cell line; assay: NCI five-dose testing; conditions: U251; for IC50: read-out: IC50; for IC (TGI): read-out: TGI (total growth inhibition concentration)
Description: as §1

[18] = test system: HT-29 colon cancer cell line; assay: NCI five-dose testing; conditions: HT-29; for IC50: read-out: IC50; for IC (TGI): read-out: TGI (total growth inhibition concentration)
Description: as §1

O=S(=O)(NCCNc1cc(-c2cn(-c3ccccc3)nc2-c2cccc(O)c2)ccn1)c1ccc(Br)cc1 [Compound 1k, 4-Bromo-N-(2-((4-(3-(3-hydroxyphenyl)-1-phenyl-1H-pyrazol-4-yl)pyridin-2-yl)amino)ethyl) benzenesulfonamide] gave an IC50 [1] of 2110 nM, an IC50 [2] of 2340 nM and an IC50 [3] of 2180 nM. The IC50 [4] was 2290 nM, the IC50 [5] was 2480 nM and the IC50 [6] was 2870 nM. The IC50 [7] was 2030 nM, the IC50 [8] was 2690 nM and the IC50 [9] was 2540 nM. For the same compound, the IC50 [10] was 2000 nM, the “LD50 (lethal dose 50)” value [10] was 34.6 µM and the IC (TGI) [10] was 5000 nM. For the same compound, the IC50 [11] was 1980 nM, the “LD50 (lethal dose 50)” value [11] was over 100 µM and the IC (TGI) [11] was 5400 nM. For the same compound, the IC50 [12] was 2700 nM, the “LD50 (lethal dose 50)” value [12] was over 100 µM and the IC (TGI) [12] was 7700 nM. For the same compound, the “LD50 (lethal dose 50)” value [13] was over 100 µM, the IC50 [13] was 2070 nM and the IC (TGI) [13] was 6400 nM. The IC50 [14] was 3330 nM, the “LD50 (lethal dose 50)” value [14] was 34.3 µM and the IC (TGI) [14] was 5400 nM. The IC50 [15] was 1640 nM, the “LD50 (lethal dose 50)” value [15] was 5.6 µM and the IC (TGI) [15] was 3000 nM. The IC50 [16] was 2320 nM, the “LD50 (lethal dose 50)” value [16] was over 100 µM and the IC (TGI) [16] was 13700 nM. For the same compound, the “LD50 (lethal dose 50)” value [17] was 25.6 µM, the IC50 [17] was 2210 nM and the IC (TGI) [17] was 5600 nM. For the same compound, the “LD50 (lethal dose 50)” value [18] was 17.3 µM, the IC50 [18] was 2170 nM and the IC (TGI) [18] was 5000 nM.
Compound O=S(=O)(NCCNc1cc(-c2cn(-c3ccccc3)nc2-c2cccc(O)c2)ccn1)c1ccc(F)cc1 [Compound 1m, 4-Fluoro-N-(2-((4-(3-(3-hydroxyphenyl)-1-phenyl-1H-pyrazol-4-yl)pyridin-2-yl)amino)ethyl) benzenesulfonamide] has an IC50 [1] of 2290 nM, an IC50 [2] of 2160 nM and an IC50 [3] of 2510 nM. For the same compound, the IC50 [4] was 2340 nM, the IC50 [5] was 2880 nM and the IC50 [6] was 2680 nM. For the same compound, the IC50 [7] was 2060 nM, the IC50 [8] was 2650 nM and the IC50 [9] was 2880 nM. For the same compound, the IC50 [10] was 2030 nM, the “LD50 (lethal dose 50)” value [10] was 68.8 µM and the IC (TGI) [10] was 8400 nM. The IC50 [11] was 1980 nM, the “LD50 (lethal dose 50)” value [11] was over 100 µM and the IC (TGI) [11] was over 100000 nM. The IC50 [12] was 1880 nM, the “LD50 (lethal dose 50)” value [12] was over 100 µM and the IC (TGI) [12] was 5300 nM. The “LD50 (lethal dose 50)” value [13] was over 100 µM, the IC50 [13] was 2290 nM and the IC (TGI) [13] was 10200 nM. The IC50 [14] was 2320 nM, the “LD50 (lethal dose 50)” value [14] was 45.7 µM and the IC (TGI) [14] was 9200 nM. The IC50 [15] was 1730 nM, the “LD50 (lethal dose 50)” value [15] was 6.0 µM and the IC (TGI) [15] was 3200 nM. For the same compound, the IC50 [16] was 3050 nM, the “LD50 (lethal dose 50)” value [16] was over 100 µM and the IC (TGI) [16] was over 100000 nM. For the same compound, the “LD50 (lethal dose 50)” value [17] was 50.9 µM, the IC50 [17] was 2620 nM and the IC (TGI) [17] was 6800 nM. The “LD50 (lethal dose 50)” value [18] was 54.3 µM, the IC50 [18] was 1990 nM and the IC (TGI) [18] was 47900 nM.
